Test results as given in ChEMBL document CHEMBL1909046, “DrugMatrix in vitro pharmacology data”.

What was measured:
[1] = molecular target: 5-hydroxytryptamine receptor 1B (Rattus norvegicus, UniProt P28564); format: cell membranes, Wistar, Cerebral cortex, Membrane; further: in other assays of this panel Not Active means under 50% inhibition at 10 µM
[2] = molecular target: Cytochrome P450 2E1 (Homo sapiens, UniProt P05181); settings: bti-tn-5b1-4; further: in other assays of this panel Not Active means under 50% inhibition at 10 µM
[3] = molecular target: Tyrosine-protein kinase Lck (Homo sapiens, UniProt P06239); experiment: DRUGMATRIX: Protein Tyrosine Kinase, LCK enzyme inhibition (substrate: Poly(Glu:Tyr)); format: cell-based, Insect cells; settings: Not Active = under 50% inhibition at 10 µM
[4] = molecular target: Estrogen receptor beta (Homo sapiens, UniProt Q92731); settings: sf9; further: in other assays of this panel Not Active means under 50% inhibition at 10 µM
[5] = molecular target: T1, Nitric oxide synthase, inducible (Mus musculus, UniProt P29477); parameters: species or system Escherichia coli;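 further: inhibition of iNOS enzyme activity measured with L-arginine as substrate; in other assays of this panel Not Active means under 50% inhibition at 10 µM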
T1 sequence (P29477 whole entry): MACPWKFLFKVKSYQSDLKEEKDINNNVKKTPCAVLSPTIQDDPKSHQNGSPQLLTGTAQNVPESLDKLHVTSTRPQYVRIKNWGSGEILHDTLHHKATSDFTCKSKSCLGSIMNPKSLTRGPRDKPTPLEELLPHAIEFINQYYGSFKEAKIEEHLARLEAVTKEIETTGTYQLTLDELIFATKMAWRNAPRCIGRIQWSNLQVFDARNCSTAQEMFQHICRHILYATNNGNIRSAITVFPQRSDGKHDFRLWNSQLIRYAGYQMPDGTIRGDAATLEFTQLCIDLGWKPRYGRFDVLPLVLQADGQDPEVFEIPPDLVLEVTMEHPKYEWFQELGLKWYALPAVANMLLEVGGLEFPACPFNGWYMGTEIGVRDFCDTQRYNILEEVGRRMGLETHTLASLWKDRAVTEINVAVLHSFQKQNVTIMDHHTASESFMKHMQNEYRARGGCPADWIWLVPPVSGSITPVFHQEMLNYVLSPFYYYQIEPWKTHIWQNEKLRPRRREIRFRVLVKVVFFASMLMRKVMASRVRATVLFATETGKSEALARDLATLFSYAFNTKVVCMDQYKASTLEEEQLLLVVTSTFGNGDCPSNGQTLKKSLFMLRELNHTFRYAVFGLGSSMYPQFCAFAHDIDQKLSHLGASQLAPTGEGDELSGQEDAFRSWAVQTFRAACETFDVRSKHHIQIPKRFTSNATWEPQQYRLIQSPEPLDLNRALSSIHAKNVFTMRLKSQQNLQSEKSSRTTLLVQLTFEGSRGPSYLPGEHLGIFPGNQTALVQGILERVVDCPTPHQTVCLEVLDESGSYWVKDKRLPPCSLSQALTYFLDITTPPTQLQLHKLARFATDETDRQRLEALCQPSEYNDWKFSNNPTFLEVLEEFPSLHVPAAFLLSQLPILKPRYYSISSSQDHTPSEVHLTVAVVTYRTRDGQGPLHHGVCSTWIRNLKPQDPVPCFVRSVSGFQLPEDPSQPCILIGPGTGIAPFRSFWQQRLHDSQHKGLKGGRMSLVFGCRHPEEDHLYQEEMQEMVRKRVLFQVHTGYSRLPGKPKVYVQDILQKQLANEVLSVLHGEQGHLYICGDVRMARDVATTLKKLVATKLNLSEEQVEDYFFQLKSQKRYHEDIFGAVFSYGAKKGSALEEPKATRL

[6] = molecular target: Substance-P receptor (Homo sapiens, UniProt P25103); format: cell membranes, Membrane; settings: cho; further: in other assays of this panel Not Active means under 50% inhibition at 10 µM
[7] = DRUGMATRIX: Phorbol Ester radioligand binding (ligand: [3H] PDBu); format: cell membranes, Mus musculus, ICR, Brain, Membrane; settings: Not Active = under 50% inhibition at 10 µM
[8] = DRUGMATRIX: Glutamate, NMDA, Agonism radioligand binding (ligand: [3H] CGP-39653); format: cell membranes, Rattus norvegicus, Wistar, Cerebral cortex, Membrane; settings: Not Active = under 50% inhibition at 10 µM

Chain of Estrogen receptor beta (Q92731 whole entry): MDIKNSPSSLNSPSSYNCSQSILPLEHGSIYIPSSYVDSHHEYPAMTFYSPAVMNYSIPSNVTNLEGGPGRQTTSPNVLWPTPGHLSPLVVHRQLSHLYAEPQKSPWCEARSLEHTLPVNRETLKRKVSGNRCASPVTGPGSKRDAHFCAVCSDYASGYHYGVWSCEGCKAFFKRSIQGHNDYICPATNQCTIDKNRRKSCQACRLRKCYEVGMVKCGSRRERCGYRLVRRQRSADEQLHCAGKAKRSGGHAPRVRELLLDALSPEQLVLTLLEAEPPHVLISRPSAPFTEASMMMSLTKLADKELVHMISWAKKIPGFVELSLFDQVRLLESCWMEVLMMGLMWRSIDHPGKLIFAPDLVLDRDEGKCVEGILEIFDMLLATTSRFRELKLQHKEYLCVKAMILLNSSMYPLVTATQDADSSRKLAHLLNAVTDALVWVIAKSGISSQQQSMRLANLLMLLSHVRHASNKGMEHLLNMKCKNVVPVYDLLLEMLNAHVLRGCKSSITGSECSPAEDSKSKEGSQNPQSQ
Chain of 5-hydroxytryptamine receptor 1B (P28564 whole entry): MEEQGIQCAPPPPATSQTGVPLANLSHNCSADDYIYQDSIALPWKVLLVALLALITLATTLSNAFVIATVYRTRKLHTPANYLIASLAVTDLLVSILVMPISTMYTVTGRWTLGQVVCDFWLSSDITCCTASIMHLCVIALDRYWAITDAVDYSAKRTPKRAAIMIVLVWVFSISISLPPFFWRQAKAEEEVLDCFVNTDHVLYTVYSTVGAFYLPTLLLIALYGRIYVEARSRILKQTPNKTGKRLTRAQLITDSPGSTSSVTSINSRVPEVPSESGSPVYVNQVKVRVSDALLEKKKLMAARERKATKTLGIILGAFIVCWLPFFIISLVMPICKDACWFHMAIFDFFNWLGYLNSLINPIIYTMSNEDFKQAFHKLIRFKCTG
Chain of Cytochrome P450 2E1 (P05181 whole entry): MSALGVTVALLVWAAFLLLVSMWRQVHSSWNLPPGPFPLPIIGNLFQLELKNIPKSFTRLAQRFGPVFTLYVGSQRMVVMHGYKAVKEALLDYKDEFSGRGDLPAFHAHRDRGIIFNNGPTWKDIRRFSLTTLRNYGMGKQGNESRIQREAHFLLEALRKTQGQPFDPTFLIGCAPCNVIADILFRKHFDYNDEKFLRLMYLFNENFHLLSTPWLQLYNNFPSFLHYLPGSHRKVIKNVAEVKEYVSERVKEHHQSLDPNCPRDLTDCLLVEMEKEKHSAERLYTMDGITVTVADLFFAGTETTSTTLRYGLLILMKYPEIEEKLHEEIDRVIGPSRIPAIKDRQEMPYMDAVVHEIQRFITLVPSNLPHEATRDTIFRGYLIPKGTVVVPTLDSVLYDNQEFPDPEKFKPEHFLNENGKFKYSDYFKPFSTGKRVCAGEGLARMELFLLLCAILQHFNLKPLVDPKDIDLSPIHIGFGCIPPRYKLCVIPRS
Chain of Substance-P receptor (P25103 whole entry): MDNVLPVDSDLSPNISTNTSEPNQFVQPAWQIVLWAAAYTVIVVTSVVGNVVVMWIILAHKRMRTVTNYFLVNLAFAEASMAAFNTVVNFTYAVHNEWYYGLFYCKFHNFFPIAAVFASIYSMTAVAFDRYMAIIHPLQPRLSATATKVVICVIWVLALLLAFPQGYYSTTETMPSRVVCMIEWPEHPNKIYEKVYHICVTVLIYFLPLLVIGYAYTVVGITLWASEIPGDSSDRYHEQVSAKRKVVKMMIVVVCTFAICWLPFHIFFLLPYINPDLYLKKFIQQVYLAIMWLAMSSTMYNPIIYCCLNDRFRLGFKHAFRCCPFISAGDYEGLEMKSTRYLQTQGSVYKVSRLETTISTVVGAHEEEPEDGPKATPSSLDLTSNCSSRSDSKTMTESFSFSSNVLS
Chain of Tyrosine-protein kinase Lck (P06239 whole entry): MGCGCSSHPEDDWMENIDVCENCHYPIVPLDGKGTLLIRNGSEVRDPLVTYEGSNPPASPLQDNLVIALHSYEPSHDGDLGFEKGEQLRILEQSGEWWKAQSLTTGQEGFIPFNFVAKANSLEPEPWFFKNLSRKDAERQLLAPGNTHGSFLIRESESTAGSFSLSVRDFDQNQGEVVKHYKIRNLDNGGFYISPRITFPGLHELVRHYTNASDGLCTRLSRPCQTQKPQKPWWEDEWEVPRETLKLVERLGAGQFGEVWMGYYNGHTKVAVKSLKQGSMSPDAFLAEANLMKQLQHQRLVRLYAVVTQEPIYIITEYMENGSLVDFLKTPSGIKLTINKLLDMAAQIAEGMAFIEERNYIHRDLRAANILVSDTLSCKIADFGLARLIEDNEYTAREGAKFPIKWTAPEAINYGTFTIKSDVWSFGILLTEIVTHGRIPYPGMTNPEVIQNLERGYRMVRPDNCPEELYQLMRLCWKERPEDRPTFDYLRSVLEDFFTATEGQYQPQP

## CCN1CC(CCN2CCOCC2)C(c2ccccc2)(c2ccccc2)C1=O (stereo unspecified) [DOXAPRAM]
[1]
  IC50: Not Active
[2]
  IC50: Not Active
  Ki: Not Active
[3]; insect cells
  IC50: Not Active
[4]
  IC50: Not Active
[5]
  IC50: Not Active
[6]
  IC50: Not Active
[7]
  IC50: Not Active
  Ki: Not Active
[8]
  IC50: Not Active
  Ki: Not Active

## Cn1c(=O)c2c(ncn2CC2OCCO2)n(C)c1=O [DOXOFYLLINE]
[1]
  IC50: Not Active
[2]
  IC50: Not Active
  Ki: Not Active
[3]; insect cells
  IC50: Not Active
[4]
  IC50: Not Active
[5]
  IC50: Not Active
[6]
  IC50: Not Active
[7]
  IC50: Not Active
  Ki: Not Active
[8]
  IC50: Not Active
  Ki: Not Active

## COc1cccc2c1C(=O)c1c(O)c3c(c(O)c1C2=O)C[C@@](O)(C(=O)CO)C[C@@H]3O[C@H]1C[C@H](N)[C@H](O)[C@H](C)O1 [DOXORUBICIN]
[1]; read-out: IC50
  IC50: 34.5 µM
[1]; read-out: Ki
  Ki: 15.7 µM
[2]
  IC50: Not Active
  Ki: Not Active
[3]; read-out: IC50
  IC50: 31.9 µM
[4]
  IC50: Not Active
[5]
  IC50: Not Active
[6]
  IC50: Not Active
[7]
  IC50: Not Active
  Ki: Not Active
[8]
  IC50: Not Active
  Ki: Not Active

## COc1cccc2c1C(=O)c1c(O)c3c(c(O)c1C2=O)C[C@@](O)(C(=O)CO)C[C@@H]3O[C@H]1C[C@H](N)[C@@H](O)[C@H](C)O1 [EPIRUBICIN]
[1]
  IC50: Not Active
[2]
  IC50: Not Active
  Ki: Not Active
[3]; insect cells
  IC50: Not Active
[4]
  IC50: Not Active
[5]
  IC50: Not Active
[6]
  IC50: Not Active
[7]
  IC50: Not Active
  Ki: Not Active
[8]
  IC50: Not Active
  Ki: Not Active

## C[C@]12CC[C@@H]3c4ccc(OC(=O)c5ccccc5)cc4CC[C@H]3[C@@H]1CC[C@@H]2O [ESTRADIOL BENZOATE]
[1]
  IC50: Not Active
[2]
  IC50: Not Active
  Ki: Not Active
[3]; insect cells
  IC50: Not Active
[4]
  IC50: Not Active
[5]
  IC50: Not Active
[6]
  IC50: Not Active
[7]
  IC50: Not Active
  Ki: Not Active
[8]
  IC50: Not Active
  Ki: Not Active

## CC[C@@H](CO)NCCN[C@@H](CC)CO [ETHAMBUTOL]
[1]
  IC50: Not Active
[2]
  IC50: Not Active
  Ki: Not Active
[3]; insect cells
  IC50: Not Active
[4]
  IC50: Not Active
[5]
  IC50: Not Active
[6]
  IC50: Not Active
[7]
  IC50: Not Active
  Ki: Not Active
[8]
  IC50: Not Active
  Ki: Not Active

## CC1(C)O[C@@H]2C[C@H]3[C@@H]4C[C@H](F)C5=CC(=O)C=C[C@]5(C)[C@H]4[C@@H](O)C[C@]3(C)[C@]2(C(=O)CO)O1 [FLUNISOLIDE]
[1]
  IC50: Not Active
[2]
  IC50: Not Active
  Ki: Not Active
[3]; insect cells
  IC50: Not Active
[4]
  IC50: Not Active
[5]
  IC50: Not Active
[6]
  IC50: Not Active
[7]
  IC50: Not Active
  Ki: Not Active
[8]
  IC50: Not Active
  Ki: Not Active

## CC1(C)O[C@@H]2C[C@H]3[C@@H]4C[C@H](F)C5=CC(=O)CC[C@]5(C)[C@H]4[C@@H](O)C[C@]3(C)[C@]2(C(=O)CO)O1 [FLURANDRENOLIDE]
[1]
  IC50: Not Active
[2]
  IC50: Not Active
  Ki: Not Active
[3]; insect cells
  IC50: Not Active
[4]
  IC50: Not Active
[5]
  IC50: Not Active
[6]
  IC50: Not Active
[7]
  IC50: Not Active
  Ki: Not Active
[8]
  IC50: Not Active
  Ki: Not Active

## CN(C)c1ccc(C(=C2C=CC(=[N+](C)C)C=C2)c2ccc(N(C)C)cc2)cc1.[Cl-] [GENTIAN VIOLET]
[1]
  IC50: Not Active
[2]
  IC50: Not Active
  Ki: Not Active
[3]; insect cells
  IC50: Not Active
[4]
  IC50: Not Active
[5]
  IC50: Not Active
[6]
  IC50: Not Active
[7]
  IC50: Not Active
  Ki: Not Active
[8]
  IC50: Not Active
  Ki: Not Active

## CC(C)Cc1ccc(C(C)C(=O)O)cc1 (stereo unspecified) [IBUPROFEN]
[1]
  IC50: Not Active
[2]
  IC50: Not Active
  Ki: Not Active
[3]; insect cells
  IC50: Not Active
[4]
  IC50: Not Active
[5]
  IC50: Not Active
[6]
  IC50: Not Active
[7]
  IC50: Not Active
  Ki: Not Active
[8]
  IC50: Not Active
  Ki: Not Active
